What was measured:
Experiment in all cases: relative viability (nuclei count vs DMSO), 5 days (fraction); higher = more cells survive
[1] = compound: C1COCCN1C2=NC(=NC3=C2OC4=C3C=CC=N4)C5=CC(=CC=C5)NC(=O)C6=CN=C(C=C6)N + O=C(c1cc(Cc2n[nH]c(=O)c3ccccc23)ccc1F)N1CCN(C(=O)C2CC2)CC1 [Olaparib] (partner 8 µM)
Method in brief: (§1)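 Lung cancer cell lines were pin-tool dosed in 1536-well plates on the day after seeding, with either a lone drug or a fixed anchor-drug dose plus five library-drug doses (not always all listed) in √10 steps. Nuclei were counted on 4× images after 5 days. Relative viability is the ratio of treated-well to vehicle-well nuclei counts, with each value a median of duplicate plates.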

[2] = compound: CN1CCC(CNc2ccc3ncc(-c4cccc(OC(F)(F)F)c4)n3n2)CC1 [SGI-1776] + N=C(N)NC(=N)NCCc1ccccc1 [Phenformin] (partner 250 µM)
Method in brief: as §1

[3] = compound: CN1CCC(CNc2ccc3ncc(-c4cccc(OC(F)(F)F)c4)n3n2)CC1 [SGI-1776] + Nc1nc2[nH]cc(CCc3ccc(C(=O)N[C@@H](CCC(=O)O)C(=O)O)cc3)c2c(=O)[nH]1 [Pemetrexed] (partner 0.2 µM)
Method in brief: as §1

[4] = compound: CN1CCC(CNc2ccc3ncc(-c4cccc(OC(F)(F)F)c4)n3n2)CC1 [SGI-1776] + O=C(c1cc(Cc2n[nH]c(=O)c3ccccc23)ccc1F)N1CCN(C(=O)C2CC2)CC1 [Olaparib] (partner 8 µM)
Method in brief: as §1

Row | Cell Line | relative viability ([1]; first compound 0.02 µM) | relative viability ([1]; first compound 0.06325 µM) | relative viability ([1]; first compound 0.2 µM) | relative viability ([1]; first compound 0.6325 µM) | relative viability ([1]; first compound 2 µM) | relative viability ([2]; first compound 0.08 µM) | relative viability ([2]; first compound 0.8 µM) | relative viability ([2]; first compound 2.53 µM) | relative viability ([2]; first compound 8 µM) | relative viability ([3]; first compound 0.08 µM) | relative viability ([3]; first compound 0.8 µM) | relative viability ([3]; first compound 2.53 µM) | relative viability ([3]; first compound 8 µM) | relative viability ([4]; first compound 0.08 µM) | relative viability ([4]; first compound 0.8 µM) | relative viability ([4]; first compound 2.53 µM) | relative viability ([4]; first compound 8 µM)
1 | SW 900 | 0.981 | 0.945 | 0.743 | 0.804 | 0.655 | 0.731 | 0.563 | 0.538 | 0.348 | 0.488 | 0.486 | 0.493 | 0.46 | 0.792 | 0.886 | 1.15 | 0.636
2 | NCI-H1944 | 0.424 | 0.41 | 0.42 | 0.413 | 0.512 | 0.186 | 0.188 | 0.189 | 0.164 | 0.727 | 0.757 | 0.591 | 0.559 | 0.411 | 0.406 | 0.422 | 0.354
3 | NCI-H838 | 0.86 | 0.812 | 0.743 | 0.741 | 0.353 | 0.622 | 0.633 | 0.52 | 0.335 | 0.232 | 0.29 | 0.258 | 0.189 | 0.776 | 0.754 | 0.695 | 0.56
4 | NCI-H1651 | 0.177 | 0.18 | 0.195 | 0.171 | 0.161 | 0.386 | 0.396 | 0.311 | 0.251 | 0.672 | 0.736 | 0.604 | 0.456 | 0.205 | 0.187 | 0.18 | 0.174
5 | HCC-827 | 0.567 | 0.61 | 0.771 | 0.575 | 0.589 | 0.412 | 0.424 | 0.459 | 0.301 | 0.393 | 0.268 | 0.24 | 0.226 | 0.694 | 0.615 | 0.739 | 0.658
6 | HCC-366 | 0.488 | 0.419 | 0.322 | 0.412 | 0.218 | 0.61 | 0.527 | 0.564 | 0.431 | 0.184 | 0.17 | 0.172 | 0.164 | 0.347 | 0.449 | 0.379 | 0.294
7 | HARA | 0.845 | 0.727 | 1.09 | 0.764 | 0.75 | 0.532 | 0.337 | 0.354 | 0.318 | 0.191 | 0.231 | 0.259 | 0.259 | 1.09 | 0.986 | 0.667 | 0.57
8 | NCI-H441 | 0.451 | 0.553 | 0.686 | 0.536 | 0.414 | 0.759 | 0.769 | 0.82 | 0.663 | 0.276 | 0.258 | 0.299 | 0.26 | 0.569 | 0.521 | 0.608 | 0.491
9 | NCI-H1299 | 0.928 | 1.04 | 0.993 | 0.962 | 0.754 | – | – | – | – | – | – | – | – | 1.01 | 0.962 | 1.05 | 0.897
10 | RERF-LC-KJ | 0.953 | 0.982 | 0.866 | 0.93 | 0.554 | 0.464 | 0.415 | 0.439 | 0.32 | 0.46 | 0.477 | 0.461 | 0.412 | 0.866 | 0.92 | 0.802 | 0.586
11 | CAL-12T | 0.66 | 0.727 | 0.69 | 0.764 | 0.569 | 0.558 | 0.647 | 0.531 | 0.558 | 1.31 | 1.06 | 1.16 | 1.28 | 0.713 | 0.738 | 0.833 | 0.696
12 | COR-L 105 | 0.71 | 0.649 | 0.607 | 0.671 | 0.63 | 0.559 | 0.512 | 0.452 | 0.315 | 1.06 | 1.14 | 1.11 | 1.09 | 0.775 | 0.726 | 0.77 | 0.631
13 | NCI-H2405 | 0.856 | 0.862 | 0.874 | 0.891 | 0.659 | 0.384 | 0.304 | 0.215 | 0.227 | 1.13 | 1.1 | 0.949 | 0.857 | 0.828 | 0.879 | 0.789 | 0.712
14 | NCI-H2228 | 0.822 | 0.69 | 0.481 | 0.564 | 0.33 | 0.345 | 0.327 | 0.286 | 0.164 | 0.369 | 0.392 | 0.332 | 0.33 | 0.671 | 0.762 | 0.548 | 0.396
15 | PC-14 | 0.304 | 0.284 | 0.249 | 0.248 | 0.186 | 0.573 | 0.648 | 0.579 | 0.151 | 0.14 | 0.13 | 0.117 | 0.101 | 0.285 | 0.367 | 0.305 | 0.114
16 | IA-LM | 0.858 | 0.826 | 0.689 | 0.616 | 0.394 | – | – | – | – | – | – | – | – | 0.97 | 0.785 | 0.919 | 0.846
17 | A549 | 0.39 | 0.353 | 0.311 | 0.243 | 0.239 | 0.122 | 0.148 | 0.11 | 0.155 | – | – | – | – | 0.39 | 0.395 | 0.389 | 0.312
18 | NCI-H2342 | 0.472 | 0.46 | 0.402 | 0.391 | 0.4 | 0.696 | 0.669 | 0.532 | 0.501 | 0.815 | 0.888 | 0.802 | 0.819 | 0.525 | 0.445 | 0.454 | 0.49
19 | NCI-H1623 | – | – | – | – | – | 0.611 | 0.571 | 0.556 | 0.626 | – | – | – | – | – | – | – | –
20 | SW 1573 | 0.488 | 0.508 | 0.439 | 0.459 | 0.36 | 0.381 | 0.31 | 0.356 | 0.275 | 0.896 | 0.799 | 0.77 | 0.671 | 0.381 | 0.428 | 0.475 | 0.297
21 | NCI-H2087 | 0.582 | 0.62 | 0.546 | 0.636 | 0.32 | 0.444 | 0.394 | 0.432 | 0.44 | 0.672 | 0.607 | 0.68 | 0.651 | 0.601 | 0.637 | 0.727 | 0.521

Reference: the supplement of paper PMC10307832
